Measurements taken from patent EP0358766A1, “METHOD OF STERILIZING PLANT ANTHERS” (VSESOJUZNY NAUCHNO-ISSLEDOVATELSKY INST. SELSKOKHOZYAISTV. …, priority 1988, dated 1989).

Tests used:
[1] = test system: Tritikale Ampfindiploid 206; test: Field test of gametocidal activity, triticale Amphidiploid 206; format: in vivo; conditions: period V, 1% aqueous emulsion, 6 kg/ha in 600 l water; for Prozentsatz des Ansetzens von Samen bei freier Bestäubung: control = 100
Description: (§1) Die gametozide Aktivität der erfindungsgemäßen Sterilisationsmittel war in Feldversuchen in verschiedenen bodenklimatischen Zonen mit Teilstücken von 10 m^2 Größe in dreibis viermaliger Wiederholung festgestellt. Jedes Sterilisationsmittel wurde mindenstens 5 Jahre lang geprüft.
(§2) Die Entwicklung der Perioden der Organogenese wird zytologisch überwacht. Die Behandlung von Pflanzen mit dem Sterilisationsmittel erfolgt am Anfang der fünften Periode der Organogenese nach Kupermann.
(§3) Mit dem Ährenschieben verwirklicht man die Isolierung von Hauptähren und anderen Stockwerken in Pergametbeuteln. Bei Weizen und Tritikale werden Einzelisolatoren benutzt. Bei Roggen schließt man je 1 Ähre von […] verschiedenen nebeneinander befindlichen Pflanzen unter einen gemeinsamen Isolator ein. Bei Hirse wird jede Rispe getrennt isoliert. Der Sterilitätsprozentsatz (X) für Weizen, Roggen, Tritikale und Hirse wird nach der Formel [formula] ermittelt.
(§4) Die Kornzahl in nicht isolierten Ähren von Kontrollpflanzen wird bedingt für 100 % Ansetzen bei freier Bestäubung angenommen.
(§5) Um zuverlässige Angaben zu erhalten, verwendet man 20 bis 25 Isolatoren je Wiederholung für Weizen und Tritikale, 10 bis 15 Isolatoren jeder Wiederholung für Roggen und Hirse.
Pflanzen von Tritikale Ampfindiploid 206 werden in der V.Periode der Organogenese (nach Kupermann) mit einer 1%igen wäßrigen Emulsion von 1,1,3-Tribrompropan bzw. 1,2-Dibromheptan behandelt. Die Emulsion enthält 0,5 Masse% C12-C14--Kalziumalkylbenzolsulfonat und 0,01 Masse% Dimethylformamid. Der Verbrauch an Präparat beträgt 6 kg/ha bei 600 1 Wasserdurchsatz. Die Prüfergebnisse sind in der Tabelle 6 angegeben.
Die gleichen Ergebnisse sind bei der Behandlung von Tritikale Amphidiploid 206 in der VI. Periode der Organogenese erhalten.

[2] = test system: Sonnenblume Sorte Peredovik; test: Field test of pollen sterilisation, sunflower Peredovik; format: in vivo
Description: as §1, §2
Zur Kontrolle der chemischen Sterilisation des Sonnenblumenpollens werden für jede Verbindung 45 behandelte Pflanzen je Wiederholung benutzt, wobei 15 Pflanzen zwecks Selbstbestäubung des Blütenkörbchens isoliert werden, 15 Pflanzen mit einem Pollengemisch, gesammelt von 20 bis 25 behandelten isolierten Körbchen, bestäubt werden, und 15 Pflanzen für freie Bestäubung gelassen werden, damit das Ansetzen von Achänen mit dem Pollen der Vaterform kontrolliert worden kann.
Man beurteilt die Pollensterilität von Pflanzen der Sonnenblume nach der Pollenfertilität und -keimfähigkeit, nach den morphologischen Besonderheiten von Spermien und nach der Fähigkeit von Achänen […] bei der Bestäubung der behandelten isolierten Pflanzen mit dem Pollen der unbehandelten väterlichen Form. Die Lebensfähigkeit der Eizelle wird nach der Samenbildung bei behandelten Pflanzen bei freier Bestäubung der väterlichen Form bestimmt.
Pflanzen der Sonnenblume Sorte Peredovik werden in der V. Periode der Organogenese (nach Kupermann) mit einer 0,2%igen wäßrigen Emulsion von 1,1,3-Tribrompropan, 1,2--Dibrompropan behandelt. Die Emulsion enthält 0,5 Masse% C12-C14-Kalziumalkylbenzolsulfonat und 0,01 Masse% Dimethylsulfoxid als Adjuvans. Der Verbrauch an Präparat beträgt 1,2 kg/ha bei 600 1 Wasserdurchsatz. Die Prüfergebnisse sind in der Tabelle 16 angegeben. Die gleichen Ergebnisse sind bei der Behandlung der Sonnenblume Sorte Peredovik in der VI. Periode der Organogenese erhalten.
Man verfährt analog den Beispielen 85 und 86. Als Sterilisationsmittel dient eine 0,1%ige wäßrige Emulsion von 1,2-Dibrom-3-chlorpropan. Der Verbrauch an Präparat beträgt […]. Die Prüfergebnisse sind in der Tabelle 16 angegeben.

[3] = Toxicity in animal test (LD50); set-up: species or system Mäuse; conditions: in vivo, mice stated only for 1,1,3-Tribrompropan, species not given for the others
Description: Alle erfindungsgemäßen Polybromalkane, die als Sterilisationsmittel zur Verwendung kommen, waren auf die Toxizität im Tierversuch geprüft. Die Prüfergebnisse haben ergeben, daß die angegebenen Verbindungen von schwacher oder mittlerer Toxizität sind.

[4] = test system: diploidem Roggen Gibrid 1864/79; test: Field test of gametocidal activity, diploid rye Gibrid 1864/79; format: in vivo; conditions: period V, 1% aqueous emulsion, 6 kg/ha in 600 l water; for Prozentsatz des Ansetzens von Samen bei freier Bestäubung: control = 100
Description: as §1, §2, §3, §4, §5
Pflanzen von diploidem Roggen Gibrid 1864/79 werden in der V. Periode der Organogenese mit einer l%igen wäßrigen Emulsion von 1,2,3-Tribrompropan, 1,2-Dibrompropan, 1,1,1,3--Tetrabromheptan, 1,1,3-Tribromheptan behandelt. Die Emulsion enthält 0,5 Masse% C12-C14-Kalziumalkylbenzolsulfonat und 0,01 Masse% Äthylenglykol. Der Verbrauch an Präparat beträgt 6 kg/ha bei 600 1 Wasserdurchsatz. Die Prüfergebnisse sind in der Tabelle 12 angegeben. Die gleichen Ergebnisse sind bei der Behandlung von diploidem Roggen Gibrid 1864/79 in der VI. Periode der Organogenese erhalten.

[5] = test system: Sommerweizens Sorte Rodina; test: Field test of gametocidal activity, spring wheat Rodina; format: in vivo, Weizen; conditions: period V, 1% aqueous emulsion, 6 kg/ha in 600 l water; for Prozentsatz des Ansetzens von freier Bestäubung: control = 100
Description: as §1, §2, §3, §4, §5
Pflanzen des Sommerweizens Sorte Rodina werden in der V.Periode der Organogenese (nach Kupermann) mit einer l%igen wäßrigen Emulsion von 1,3-Dibrompropan, 1,1,1,3-Tetrabromheptan, 1,1,3-Tribromheptan bzw. 1,2-Dibromheptan behandelt. Die Emulsion enthalt 0,5 Masse% C12-C14 Kalziumalk^ylbenzol- sulfonat und 0,01 Masse% Dodezylsulfat. Der Verbrauch an Präparat beträgt 6 Kg/ha bei 600 1 Wasserdurchsatz. Als Kontrolle dienen Pflanzen, behandelt mit dem Verdünner ohne Sterilisationsmittel.
Die Prüfergebnisse sind in der Tabelle 3 angegeben. Die gleichen Ergebnisse sind bei der Behandlung des Sommerweizens Sorte Rodina in der VI. Periode der Organogenese erhalten.

[6] = test system: Sommerweizens Sorte Botanicheskaya 4; test: Field test of gametocidal activity, spring wheat Botanicheskaya 4; format: in vivo, Weizen; conditions: period V, 1% aqueous emulsion, 6 kg/ha in 600 l water; for Prozentsatz des Ansetzens von Samen bei freier Bestäubung: control = 100
Description: as §1, §2, §3, §4, §5
Pflanzen des Sommerweizens Sorte Botanicheskaya 4 werden in der V. Periode der Organogenese (nach Kupermann) mit einer 1%igen wäßrigen Emulsion von 1,3-Dibrompropan, 1,1,1,3-Tetrabromheptan, 1,1,2-Tribromheptan bzw. 1,2--Dibromheptan behandelt. Die Emulsion enthält 0,5 Masse% C12-C14-Kalziumalkylbenzolsulfonat und 0,01 Masse% Dimethylsulfoxid als Adjuvans. Der Verbrauch an Präparat beträgt 6 kg/ha bei 600 1 Wasserdurchsatz. Als Kontrolle dienen Pflanzen, behandelt mit dem Verdünner ohne Sterilisationsmittel.
Die Prüfergebnisse sind in der Tabelle 4 angegeben. Die gleichen Ergebnisse sind bei der Behandlung des Sommerweizens Sorte Botanicheskaya 4 in der VI. Periode der Organogenese erhalten.

[7] = period V, 0.2% aqueous emulsion, 1.2 kg/ha in 600 l water
[8] = 0.1% aqueous emulsion, 1.0 kg/ha

## BrCCC(Br)Br [Beispiel 1, 1,1,3-Tribrompropan]
[1]
  Kornzahl der Ähre bei freier Bestäubung: 30,1
  Kornzahl der Ähre im Isolator: 0,0
  Prozentsatz der Sterilität: 100,0%
  Prozentsatz des Ansetzens von Samen bei freier Bestäubung: 82,2%
[2]; [7]
  Ansetzen bei freier Bestäubung in %: 78,7%
  Ansetzen im Isolator bei Pollengemischbestäubung in %: 0,0%
  Pollenleistung in %: 30,0%
  Pollensterilität in %: 100,0%
[3]
  LD50: 540 mg/kg

## CC(Br)CBr (stereo not shown) [Beispiel 5, 1,2-Dibrompropan]
[4]
  Kornzahl der Ähre bei freier Bestäubung: 46,4
  Kornzahl der Ähre unter Isolator: 0,0
  Prozentsatz der Sterilität: 100,0%
  Prozentsatz des Ansetzens von Samen bei freier Bestäubung: 97,1%
[2]; [7]
  Ansetzen bei freier Bestäubung in %: 84,5%
  Ansetzen im Isolator bei Pollengemischbestäubung in %: 0,0%
  Pollenleistung in %: 13,1%
  Pollensterilität in %: 100,0%

## BrCC(Br)CBr [Beispiel 4, 1,2,3-Tribrompropan]
[4]
  Kornzahl der Ähre bei freier Bestäubung: 42,1
  Kornzahl der Ähre unter Isolator: 0,0
  Prozentsatz der Sterilität: 100,0%
  Prozentsatz des Ansetzens von Samen bei freier Bestäubung: 88,0%

## CCCCC(Br)CC(Br)Br (stereo not shown) [Beispiel 10, 1,1,3-Tribromheptan]
[5]
  Kornzahl der Ähre bei freier Bestäubung: 33,8
  Kornzahl der Ähre im Isolator: 0,0
  Prozentsatz der Sterilität: 100,0%
  Prozentsatz des Ansetzens von freier Bestäubung: 83,7%
[4]
  Kornzahl der Ähre bei freier Bestäubung: 52,6
  Kornzahl der Ähre unter Isolator: 0,0
  Prozentsatz der Sterilität: 100,0%
  Prozentsatz des Ansetzens von Samen bei freier Bestäubung: 109,8%

## CCCCCC(Br)CBr (stereo not shown) [Beispiel 11, 1,2-Dibromheptan]
[5]
  Kornzahl der Ähre bei freier Bestäubung: 32,7
  Kornzahl der Ähre im Isolator: 0,0
  Prozentsatz der Sterilität: 100,0%
  Prozentsatz des Ansetzens von freier Bestäubung: 80,9%
[6]
  Kornzahl der Ähre bei freier Bestäubung: 23,6
  Kornzahl der Ähre im Isolator: 0,0
  Prozentsatz der Sterilität: 100,0%
  Prozentsatz des Ansetzens von Samen bei freier Bestäubung: 76,4%
[1]
  Kornzahl der Ähre bei freier Bestäubung: 29,2
  Kornzahl der Ähre im Isolator: 0,0
  Prozentsatz der Sterilität: 100,0%
  Prozentsatz des Ansetzens von Samen bei freier Bestäubung: 79,8%

## ClCC(Br)CBr (stereo not shown) [Beispiel 7, 1,2-Dibrom-3-chlorpropan]
[2]; [8]
  Ansetzen bei freier Bestäubung in %: 81,4%
  Ansetzen im Isolator bei Pollengemischbestäubung in %: 0,0%
  Pollenleistung in %: 0,0%
  Pollensterilität in %: 100,0%
[3]
  LD50: ~170 mg/kg

## CCCCC(Br)CC(Br)(Br)Br (stereo not shown) [Beispiel 9, 1,1,1,3-Tetrabromheptan]
[5]
  Kornzahl der Ähre bei freier Bestäubung: 35,4
  Kornzahl der Ähre im Isolator: 0,0
  Prozentsatz der Sterilität: 100,0%
  Prozentsatz des Ansetzens von freier Bestäubung: 87,6%
[6]
  Kornzahl der Ähre bei freier Bestäubung: 28,1
  Kornzahl der Ähre im Isolator: 0,0
  Prozentsatz der Sterilität: 100,0%
  Prozentsatz des Ansetzens von Samen bei freier Bestäubung: 90,9%
[4]
  Kornzahl der Ähre bei freier Bestäubung: 49,2
  Kornzahl der Ähre unter Isolator: 0,0
  Prozentsatz der Sterilität: 100,0%
  Prozentsatz des Ansetzens von Samen bei freier Bestäubung: 103,0%
